Laboratory results: US3987028A, “Antibiotic 20,798 R.P” (Rhone-Poulenc S.A., priority 1968, dated 1976)
Values after ≈ are worked out from the molar mass of the structure shown. Where a name gives a salt, the structure may show the parent alone.

Tests used:
[1] = solubility; type: physicochemical
[2] = stability to acid treatment of the fermentation broth; type: physicochemical; conditions: 10° to 75° C., 48 hours to 30 minutes
Description: When desired, the fermentation broth can, before the extraction procedures, be treated with an acid at a temperature between 10° and 75° C. for a period of from 48 hours to 30 minutes, the length of time varying inversely with the temperature, so as to enrich the antibiotic 9865 R.P. with daunorubicin. […] For acidification of the fermentation broth inorganic acids (hydrochloric, phosphoric or sulphuric acid) or organic acids (acetic or oxalic acid etc.) are suitable at various concentrations, but preferably hydrochloric acid or oxalic acid is used at concentrations of between 0.01N and 1N. The hydrolysis is preferably carried out for a period of from 15 hours to 1 hour at a temperature of from 20° C. to 50° C., the length of time varying inversely with the temperature.

[3] = test system: sarcoma 180; assay: anti-tumor activity in mice, sarcoma 180
[4] = test system: Brucella bronchiseptica (CN 387 - Wellcome Institute); assay: microbe, parasite or virus in culture; type: cell-based; conditions: Bordetella bronchiseptica, read-out: Minimal inhibitory concentration
[5] = test system: Sarcina lutea ATCC 9341; type: cell-based; conditions: Micrococcus luteus, ATCC9341, read-out: Minimal inhibitory concentration
Description: (§1) The bacteriostatic activity of 20,798 R.P. was determined by one of the dilution methods usually employed for this purpose. For each microorganism the minimum concentration of antibiotic, which under specified conditions inhibits all visible development of the microorganism in an appropriate nutrient medium, was determined. The results of the various determinations are collected in Table III below, in which the minimum bacteriostatic concentrations are expressed in micrograms of substance per cc. of test medium.

[6] = test system: Mycobacterium phlei (Bacteriological Institute of Lyon); type: cell-based; conditions: Mycolicibacterium phlei, read-out: Minimal inhibitory concentration
Description: as §1

[7] = test system: Staphylococcus aureus, strain 209 P ATCC 6538 P; type: cell-based; conditions: ATCC6538; Staphylococcus aureus 209 P ATCC 6538 P; read-out: Minimal inhibitory concentration
Description: as §1

[8] = test system: Diplococcus pneumoniae (strain Til, Institut Pasteur); type: cell-based; conditions: Streptococcus pneumoniae, read-out: Minimal inhibitory concentration
Description: as §1

[9] = test system: Streptococcus faecalis (Faculty of Pharmacy, Paris); type: cell-based; conditions: Enterococcus faecalis, read-out: Minimal inhibitory concentration
Description: as §1

[10] = test system: Klebsiella pneumoniae ATCC 10,031; type: cell-based; conditions: read-out: Minimal inhibitory concentration
Description: as §1

[11] = test system: Proteus X 19; type: cell-based; conditions: read-out: Minimal inhibitory concentration
Description: as §1

[12] = test system: Salmonella paratyphi A (Lacasse, Institut Pasteur); type: cell-based; conditions: Salmonella enterica, read-out: Minimal inhibitory concentration
Description: as §1

[13] = test system: Mycobacterium para-smegmatis (A 75, Lausanne); type: cell-based; conditions: read-out: Minimal inhibitory concentration
Description: as §1

[14] = test system: Lactobacillus casei ATCC 7469; type: cell-based; conditions: Lacticaseibacillus casei, ATCC7469, read-out: Minimal inhibitory concentration
Description: as §1

[15] = test system: Neisseria catarrhalis A 152; type: cell-based; conditions: A152, read-out: Minimal inhibitory concentration
Description: as §1

[16] = test system: Bacillus subtilis (ATCC 6633); type: cell-based; conditions: ATCC6633, read-out: Minimal inhibitory concentration
Description: as §1

[17] = test system: Streptococcus pyogenes hemolyticus (strain Dig. 7, Institut Pasteur); type: cell-based; conditions: read-out: Minimal inhibitory concentration
Description: as §1

[18] = test system: Pasteurella multocida (A 125, Institut Pasteur); type: cell-based; conditions: read-out: Minimal inhibitory concentration
Description: as §1

[19] = test system: Mycobacterium smegmatis ATCC 607; type: cell-based; conditions: Mycolicibacterium smegmatis, ATCC607, read-out: Minimal inhibitory concentration
Description: as §1

[20] = test system: leucaemia L 1210; assay: anti-tumor activity in mice, leucaemia L 1210
[21] = toxicity on mice (LD50); conditions: mouse, in vivo, ip, intra-peritoneal (i.p.), read-out: 50% lethal dose (LD50)
Description: The toxicity of 20,798 R.P. has been studied principally on mice. The 50% lethal dose or LD50 was determined intra-peritoneally: […]

Question: What does the source list for `COc1cccc2c1C(=O)c1c(O)c3c(c(O)c1C2=O)CC(O)(C(C)O)CC3OC1CC(N)C(O)C(C)O1` (stereo not shown) [20,798 R.P. hydrochloride]?
Answer: Solubility ([1]; alcohols): soluble; Solubility ([1]; benzene): practically insoluble; Solubility ([1]; chloroform): sparingly soluble; Solubility ([1]; diethyl ether): practically insoluble; Solubility ([1]; water): soluble

Question: For `COc1cccc2c1C(=O)c1c(O)c3c(c(O)c1C2=O)CC(O)(C(C)O)CC3O` (stereo not shown) [aglycone of 20,798 R.P.], which Solubility ([1]; benzene) is on record?
Answer: very sparingly soluble

Question: And the Solubility ([1]; chloroform)?
Answer: sparingly soluble

Question: What about the Solubility ([1]; diethyl ether) of the same molecule?
Answer: practically insoluble

Question: And the Solubility ([1]; ethyl acetate)?
Answer: sparingly soluble

Question: What about the Solubility ([1]; hexane) of the same molecule?
Answer: practically insoluble

Question: And the Solubility ([1]; methanol)?
Answer: sparingly soluble

Question: And the Solubility ([1]; water)?
Answer: practically insoluble

Question: What does the source list for `COc1cccc2c1C(=O)c1c(O)c3c(c(O)c1C2=O)CC(O)(C(C)O)CC3OC1CC(N)C(O)C(C)O1` (stereo not shown) [20,798 R.P.]?
Answer: hydrolysis under acid treatment [2]: not hydrolysed; ED50 ([3]; Mus musculus, Sarcoma-180, sc, read-out: 50% active dose (AD50)): 0.75 mg/kg; anti-tumor activity ([3]; graftable tumours of mice, solid form of sarcoma 180): particularly active; MIC [4]: 170 µg/mL (≈ 321 µM); MIC [5]: 12 µg/mL (≈ 22.7 µM); MIC [6]: 3.1 µg/mL (≈ 5.85 µM); MIC [7]: 100 µg/mL (≈ 189 µM); MIC [8]: 6.1 µg/mL (≈ 11.5 µM); MIC [9]: > 33 µg/mL; MIC [10]: > 330 µg/mL; MIC [11]: > 83 µg/mL; MIC [12]: > 83 µg/mL; MIC [13]: 3.1 µg/mL (≈ 5.85 µM); MIC [14]: 24 µg/mL (≈ 45.3 µM); MIC [15]: > 28 µg/mL; MIC [16]: 21 µg/mL (≈ 39.7 µM); MIC [17]: 11 µg/mL (≈ 20.8 µM); MIC [18]: 14 µg/mL (≈ 26.4 µM); MIC [19]: 5.8 µg/mL (≈ 11 µM); ED50 ([20]; Mus musculus, L1210, ip, read-out: 50% active dose (AD50)): 0.8 mg/kg; anti-tumor activity ([20]; graftable tumours of mice, leucaemia L 1210): particularly active; LD50 [21]: 6.5 mg/kg
